Data on ten molecules can be found in patent US20040018253A1, “Use of CYP2D6 inhibitors in combination therapies” (priority 1999, published 2004).

Where two headings read alike, the source gives them in different places.

The target of series [1] is T1, CYP2D6 (Homo sapiens, UniProt P10635). The series can be described thus: CYP2D6 catalyzed metabolism, Michaelis-Menten KM.
Series [2] is described as follows: Human pharmacokinetics of CYP2D6 substrates (half-life, oral bioavailability, hepatic extraction).
For series [3] the following is noted: in vivo.
Series [4] addresses T1, CYP2D6.
The test system of series [5] is CYP. As to conditions: cited from earlier work.
The conditions of series [6]: after oral administration of imipramine; extensive metabolizers; cited from earlier work.
The conditions of series [7]: increasing dose; not observed in poor metabolizers; cited from earlier work.
In series [8] the target is T1, CYP2D6. As to conditions: in vivo, via inhibition of CYP2D6; cited from earlier work.

T1 sequence (P10635 whole entry): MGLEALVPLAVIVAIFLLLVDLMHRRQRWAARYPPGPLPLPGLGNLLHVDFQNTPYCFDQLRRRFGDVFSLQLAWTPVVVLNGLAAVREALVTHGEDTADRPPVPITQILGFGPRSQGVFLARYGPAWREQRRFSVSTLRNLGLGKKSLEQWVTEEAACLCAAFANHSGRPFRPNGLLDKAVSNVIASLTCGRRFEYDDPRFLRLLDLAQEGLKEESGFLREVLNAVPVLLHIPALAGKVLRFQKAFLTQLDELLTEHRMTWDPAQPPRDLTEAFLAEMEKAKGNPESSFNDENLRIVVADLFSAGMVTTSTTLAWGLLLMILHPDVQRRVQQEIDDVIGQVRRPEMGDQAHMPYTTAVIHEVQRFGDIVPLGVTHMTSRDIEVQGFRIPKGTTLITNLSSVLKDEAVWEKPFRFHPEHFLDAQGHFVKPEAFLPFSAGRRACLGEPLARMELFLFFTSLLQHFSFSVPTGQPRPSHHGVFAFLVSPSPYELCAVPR

Consider `C[C@@H]([C@@H](O)c1ccc(O)cc1)N1CCC(O)(c2ccccc2)CC1` [(1S,2S)-1-(4-hydroxyphenyl)-2-(4-hydroxy-4-phenylpiperidin-1-yl)-1-propanol], for which, in series [1] (human), the Km fell in the range of 3 to 4 µM. In series [2] (in vivo), the half-life was 3 to 4 h. As for `COc1ccccc1CN[C@H]1CCCN[C@H]1c1ccccc1` [(2S,3S)-2-phenyl-3-(2-methoxyphenyl)-methylaminopiperidine], the human half-life entry in series [3] (human) was “about 4.7 hours”. This molecule also gave a human oral bioavailability in series [3] (human, po) of 1.0%. For the same molecule, in series [3] (iv), the hepatic extraction result is on record as “exceeds 90%”. Also, the Km in series [4] was approximately 1 µM. Consider `O=c1c(-c2c(O)cc(O)c3c(=O)cc(-c4ccc(O)cc4)oc23)c(-c2ccc(O)cc2)oc2cc(O)cc(O)c12` [I3, II8-biapigenin], for which the CYP inhibitory activity entry in series [5] is on record as “exhibit CYP inhibitory activity”. Regarding `CNCCCN1c2ccccc2CCc2ccccc21` [desipramine], the “range of steady state plasma concentrations” value in series [6] was 20 fold. On to `Cc1cc(O)c2c(=O)c3c(O)cc(O)c4c5c(O)cc(O)c6c(=O)c7c(O)cc(C)c8c1c2c(c34)c(c78)c65` [hypericin], for which the CYP inhibitory activity result in series [5] is recorded as “exhibit CYP inhibitory activity”. Take `CN(C)CCCN1c2ccccc2CCc2ccccc21` [imipramine]: the “range of steady state plasma concentrations” value in series [6] was 20 fold. `Fc1ccc([C@@H]2CCNC[C@H]2COc2ccc3c(c2)OCO3)cc1` [paroxetine]: in series [7], the dose-exposure relationship result was “supraproportional”. As for `O=c1c(O)c(-c2ccc(O)c(O)c2)oc2cc(O)cc(O)c12` [quercetin], the CYP inhibitory activity result in series [5] is “exhibit CYP inhibitory activity”. With `C=C[C@H]1C[N@@]2CC[C@H]1C[C@@H]2[C@@H](O)c1ccnc2ccc(OC)cc12` [quinidine], the “effect on metabolizer phenotype” value in series [8] is on record as “converting an extensive metabolizer to the poor metabolizer phenotype”. In the case of `O=C1CCC(=O)N1C[C@H]1CC[C@H]2CN(c3ncccn3)CCN2C1` [sunipetron, (7S,9S)-2-(2-pyrimidyl)-7-(succinamidomethyl)-prehydro-1H-pyrido-[1,2-a]pyrazine], the Km in series [1] (CYP2D6 substrate) is approximately 1 µM. In series [2] (oral), this molecule displayed a human oral bioavailability of 4.6%.

In general, Km refers to the concentration of substrate that gives half-maximal velocity. Usually half-life stands for the time in which the quantity being followed falls by half. Read a high half-life as slow decline.
